System: NCI-H1417 complex spheroids, growth % test/control
Assay: Anticancer human tumor NCI-H1417 cell line growth inhibition [Asc];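 also: spheroids exposed to compounds for 7 days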;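 as to viability, T/C: 100% = DMSO vehicle control wells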
Details: for IC50: curve of first compound; for viability, T/C: stronger effect = lower value; active = viability on the fitted dose curve at most 10% of control; inactive = the rest
How it was run: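 Complex solid-tumor spheroids incorporating human endothelial and mesenchymal stem cells received single agents or combinations over half-log dilution ranges anchored to clinical Cmax.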

[1] = second compound 0.1 µM, first compound 0.0316 µM
[2] = second compound 0.1 µM, first compound 0.1 µM
[3] = second compound 0.316 µM, first compound 0.0316 µM
[4] = second compound 0.316 µM, first compound 0.1 µM
[5] = second compound 1 µM, first compound 0.0316 µM
[6] = second compound 1 µM, first compound 0.1 µM
[7] = second compound 3.16 µM, first compound 0.0316 µM
[8] = second compound 3.16 µM, first compound 0.1 µM
[9] = second compound 10 µM, first compound 0.0316 µM
[10] = second compound 10 µM, first compound 0.1 µM

Cn1ncnc1[C@H]1c2n[nH]c(=O)c3cc(F)cc(c23)N[C@@H]1c1ccc(F)cc1 + Cc1c(S(C)(=O)=O)c(-c2cc(F)cc(N3CCN(c4ccc(NS(=O)(=O)c5ccc(NC(CCN6CCC(C(=O)OCCCP(=O)(O)O)CC6)CSc6ccccc6)c(S(=O)(=O)C(F)(F)F)c5)cc4)CC3)c2)c(-c2ccc(Cl)cc2)n1C(C)C
< 0.316 nM: IC50 (second compound 0.316 µM) | IC50 (second compound 1 µM) | IC50 (second compound 3.16 µM) | IC50 (second compound 10 µM)
active: viability, T/C [1] 8.37% | viability, T/C [2] 5.48% | viability, T/C (second compound 0.316 µM, first compound 0.01 µM) 5.82% | viability, T/C [3] 3.42% | viability, T/C [4] 3.86% | viability, T/C (second compound 1 µM, first compound 0.001 µM) 10.4% | viability, T/C (second compound 1 µM, first compound 0.00316 µM) 6.37% | viability, T/C (second compound 1 µM, first compound 0.01 µM) 3.13% | viability, T/C [5] 2.7% | viability, T/C [6] 3.15% | viability, T/C (second compound 3.16 µM, first compound 0.000316 µM) 3.13% | viability, T/C (second compound 3.16 µM, first compound 0.001 µM) 2.74% | viability, T/C (second compound 3.16 µM, first compound 0.00316 µM) 2.64% | viability, T/C (second compound 3.16 µM, first compound 0.01 µM) 2.34% | viability, T/C [7] 3.42% | viability, T/C [8] 2.69% | viability, T/C (second compound 10 µM, first compound 0.000316 µM) 2.53% | viability, T/C (second compound 10 µM, first compound 0.001 µM) 2.63% | viability, T/C (second compound 10 µM, first compound 0.00316 µM) 2.54% | viability, T/C (second compound 10 µM, first compound 0.01 µM) 2.98% | viability, T/C [9] 3.14% | viability, T/C [10] 2.76%
inactive: viability, T/C (second compound 0.1 µM, first compound 0.000316 µM) 85.9% | viability, T/C (second compound 0.1 µM, first compound 0.001 µM) 83.2% | viability, T/C (second compound 0.1 µM, first compound 0.00316 µM) 54.8% | viability, T/C (second compound 0.1 µM, first compound 0.01 µM) 21.9% | viability, T/C (second compound 0.316 µM, first compound 0.000316 µM) 46.7% | viability, T/C (second compound 0.316 µM, first compound 0.001 µM) 42.7% | viability, T/C (second compound 0.316 µM, first compound 0.00316 µM) 31.7% | viability, T/C (second compound 1 µM, first compound 0.000316 µM) 12.5%
3.84 nM: IC50 (second compound 0.1 µM)

O=C(c1cc(Cc2n[nH]c(=O)c3ccccc23)ccc1F)N1CCN(C(=O)C2CC2)CC1 + Cc1c(S(C)(=O)=O)c(-c2cc(F)cc(N3CCN(c4ccc(NS(=O)(=O)c5ccc(NC(CCN6CCC(C(=O)OCCCP(=O)(O)O)CC6)CSc6ccccc6)c(S(=O)(=O)C(F)(F)F)c5)cc4)CC3)c2)c(-c2ccc(Cl)cc2)n1C(C)C
1110 nM: IC50 (second compound 0.1 µM)
< 31.6 nM: IC50 (second compound 0.316 µM) | IC50 (second compound 1 µM) | IC50 (second compound 3.16 µM) | IC50 (second compound 10 µM)
active: viability, T/C (second compound 0.1 µM, first compound 10 µM) 5.06% | viability, T/C (second compound 0.316 µM, first compound 10 µM) 3.61% | viability, T/C (second compound 1 µM, first compound 0.316 µM) 8.49% | viability, T/C (second compound 1 µM, first compound 1 µM) 5.49% | viability, T/C (second compound 1 µM, first compound 3.16 µM) 2.71% | viability, T/C (second compound 1 µM, first compound 10 µM) 3.64% | viability, T/C [7] 2.9% | viability, T/C [8] 2.62% | viability, T/C (second compound 3.16 µM, first compound 0.316 µM) 2.54% | viability, T/C (second compound 3.16 µM, first compound 1 µM) 2.33% | viability, T/C (second compound 3.16 µM, first compound 3.16 µM) 2.43% | viability, T/C (second compound 3.16 µM, first compound 10 µM) 2.96% | viability, T/C [9] 2.71% | viability, T/C [10] 2.63% | viability, T/C (second compound 10 µM, first compound 0.316 µM) 2.54% | viability, T/C (second compound 10 µM, first compound 1 µM) 1.96% | viability, T/C (second compound 10 µM, first compound 3.16 µM) 2.66% | viability, T/C (second compound 10 µM, first compound 10 µM) 3.21%
inactive: viability, T/C [1] 78.7% | viability, T/C [2] 78.5% | viability, T/C (second compound 0.1 µM, first compound 0.316 µM) 69.3% | viability, T/C (second compound 0.1 µM, first compound 1 µM) 52.8% | viability, T/C (second compound 0.1 µM, first compound 3.16 µM) 25.5% | viability, T/C [3] 44.5% | viability, T/C [4] 37% | viability, T/C (second compound 0.316 µM, first compound 0.316 µM) 35.1% | viability, T/C (second compound 0.316 µM, first compound 1 µM) 23.2% | viability, T/C (second compound 0.316 µM, first compound 3.16 µM) 7.41% | viability, T/C [5] 10.6% | viability, T/C [6] 14.2%

Reference: PubChem BioAssay AID1963440 (Molecular Pharmacology Branch, DTP, NCI, 2024)
